A compilation of properties of binary mixtures (doi:10.1021/acs.jpcc.9b06000)

Test: xn = mol fraction of the nth substance listed
Settings: 101 kPa

For `FC1CC(F)(F)C(F)(F)C1(F)F` (centres undefined) + CCCC[N+]1(C)CCCC1.FC(F)(F)C(F)(F)[P-](F)(F)(F)(C(F)(F)C(F)(F)F)C(F)(F)C(F)(F)F, which electrical conductivity (298.1 K, x2 = 0.035) is on record?
The electrical conductivity was 0.402 S/m.

What about the electrical conductivity (298.1 K, x2 = 0.077) of the same compound?
The electrical conductivity was 0.514 S/m.

What about the electrical conductivity (298.1 K, x2 = 0.122) of the same compound?
The electrical conductivity was 0.605 S/m.

What about the viscosity (298.1 K, x2 = 0.127) of the same compound?
The viscosity was 3.91 mPa·s.

And the electrical conductivity (298.1 K, x2 = 0.18)?
Its electrical conductivity is 0.678 S/m.

And the electrical conductivity (298.1 K, x2 = 0.248)?
Its electrical conductivity is 0.569 S/m.

And the electrical conductivity (298.1 K, x2 = 0.334)?
Its electrical conductivity is 0.489 S/m.

What about the electrical conductivity (298.1 K, x2 = 0.437) of the same compound?
The electrical conductivity was 0.351 S/m.

What about the viscosity (298.1 K, x2 = 0.656) of the same compound?
The viscosity was 54.8 mPa·s.

And the viscosity (298.1 K, x2 = 0.841)?
The viscosity was 112.6 mPa·s.

What about the electrical conductivity (303 K, x2 = 0.035) of the same compound?
Its electrical conductivity is 0.428 S/m.

And the electrical conductivity (303 K, x2 = 0.077)?
The electrical conductivity was 0.554 S/m.

What about the viscosity (303 K, x2 = 0.08) of the same compound?
The viscosity was 2.72 mPa·s.

And the electrical conductivity (303 K, x2 = 0.122)?
The electrical conductivity was 0.656 S/m.

And the electrical conductivity (303 K, x2 = 0.248)?
Its electrical conductivity is 0.638 S/m.

What about the electrical conductivity (303 K, x2 = 0.331) of the same compound?
The electrical conductivity was 0.572 S/m.

What about the viscosity (303 K, x2 = 0.338) of the same compound?
Its viscosity is 11.23 mPa·s.

And the electrical conductivity (303 K, x2 = 0.653)?
The electrical conductivity was 0.33 S/m.

What about the viscosity (303 K, x2 = 0.659) of the same compound?
The viscosity was 45 mPa·s.

And the electrical conductivity (308.1 K, x2 = 0.032)?
Its electrical conductivity is 0.453 S/m.

And the viscosity (308.1 K, x2 = 0.08)?
The viscosity was 2.37 mPa·s.

And the electrical conductivity (308.1 K, x2 = 0.125)?
Its electrical conductivity is 0.717 S/m.

What about the electrical conductivity (308.1 K, x2 = 0.183) of the same compound?
The electrical conductivity was 0.812 S/m.

And the electrical conductivity (308.1 K, x2 = 0.248)?
The electrical conductivity was 0.703 S/m.

What about the electrical conductivity (308.1 K, x2 = 0.331) of the same compound?
The electrical conductivity was 0.641 S/m.

What about the electrical conductivity (308.1 K, x2 = 0.437) of the same compound?
The electrical conductivity was 0.478 S/m.

And the viscosity (308.1 K, x2 = 0.437)?
Its viscosity is 15.23 mPa·s.

And the electrical conductivity (308.1 K, x2 = 0.656)?
Its electrical conductivity is 0.38 S/m.

What about the viscosity (308.1 K, x2 = 0.656) of the same compound?
The viscosity was 37 mPa·s.

And the electrical conductivity (308.1 K, x2 = 0.839)?
The electrical conductivity was 0.254 S/m.

What about the viscosity (308.1 K, x2 = 0.844) of the same compound?
Its viscosity is 68.1 mPa·s.

And the viscosity (313 K, x2 = 0)?
The viscosity was 1.28 mPa·s.

What about the electrical conductivity (313 K, x2 = 0.035) of the same compound?
Its electrical conductivity is 0.482 S/m.

And the electrical conductivity (313 K, x2 = 0.077)?
The electrical conductivity was 0.638 S/m.

And the electrical conductivity (313 K, x2 = 0.122)?
Its electrical conductivity is 0.772 S/m.

And the electrical conductivity (313 K, x2 = 0.251)?
The electrical conductivity was 0.764 S/m.

And the electrical conductivity (313 K, x2 = 0.334)?
The electrical conductivity was 0.714 S/m.

What about the viscosity (313 K, x2 = 0.338) of the same compound?
Its viscosity is 8.03 mPa·s.

What about the electrical conductivity (313 K, x2 = 0.437) of the same compound?
The electrical conductivity was 0.54 S/m.

And the electrical conductivity (313 K, x2 = 0.653)?
Its electrical conductivity is 0.449 S/m.

What about the viscosity (313 K, x2 = 0.655) of the same compound?
Its viscosity is 28.8 mPa·s.

What about the electrical conductivity (313 K, x2 = 0.839) of the same compound?
Its electrical conductivity is 0.297 S/m.

And the viscosity (313 K, x2 = 0.841)?
Its viscosity is 54.5 mPa·s.

What about the viscosity (318.1 K, x2 = 0.08) of the same compound?
The viscosity was 1.95 mPa·s.

What about the electrical conductivity (318.1 K, x2 = 0.125) of the same compound?
Its electrical conductivity is 0.83 S/m.

What about the electrical conductivity (318.1 K, x2 = 0.183) of the same compound?
The electrical conductivity was 0.949 S/m.

And the electrical conductivity (318.1 K, x2 = 0.248)?
Its electrical conductivity is 0.826 S/m.

And the electrical conductivity (318.1 K, x2 = 0.338)?
The electrical conductivity was 0.786 S/m.

And the electrical conductivity (318.1 K, x2 = 0.431)?
Its electrical conductivity is 0.609 S/m.

What about the electrical conductivity (318.1 K, x2 = 0.653) of the same compound?
The electrical conductivity was 0.511 S/m.

And the viscosity (318.1 K, x2 = 0.84)?
The viscosity was 44.8 mPa·s.

And the viscosity (323 K, x2 = 0)?
The viscosity was 1.08 mPa·s.

And the electrical conductivity (323 K, x2 = 0.039)?
Its electrical conductivity is 0.543 S/m.

And the electrical conductivity (323 K, x2 = 0.077)?
Its electrical conductivity is 0.75 S/m.

And the electrical conductivity (323 K, x2 = 0.122)?
Its electrical conductivity is 0.906 S/m.

What about the electrical conductivity (323 K, x2 = 0.183) of the same compound?
The electrical conductivity was 1.04 S/m.

And the viscosity (323 K, x2 = 0.183)?
Its viscosity is 3.12 mPa·s.

And the electrical conductivity (323 K, x2 = 0.248)?
The electrical conductivity was 0.899 S/m.

And the electrical conductivity (323 K, x2 = 0.331)?
The electrical conductivity was 0.851 S/m.

What about the viscosity (323 K, x2 = 0.335) of the same compound?
Its viscosity is 6.61 mPa·s.

And the electrical conductivity (323 K, x2 = 0.434)?
The electrical conductivity was 0.703 S/m.

And the electrical conductivity (323 K, x2 = 0.653)?
Its electrical conductivity is 0.591 S/m.

What about the electrical conductivity (323 K, x2 = 0.839) of the same compound?
The electrical conductivity was 0.417 S/m.

And the viscosity (323 K, x2 = 0.84)?
Its viscosity is 36.8 mPa·s.
